Results on 34 compounds are retold here after BindingDB's records for doi:10.7270/Q2Z31X1B (Nmmlsc, 2007).

Some results are limits rather than exact numbers.

As a reminder, the Ki is the dissociation constant of the complex between target and ligand, obtained from inhibition or displacement.

This assay concerns the target T1, fMet-Leu-Phe receptor (Homo sapiens, UniProt P21462).
T1 sequence (P21462 whole entry): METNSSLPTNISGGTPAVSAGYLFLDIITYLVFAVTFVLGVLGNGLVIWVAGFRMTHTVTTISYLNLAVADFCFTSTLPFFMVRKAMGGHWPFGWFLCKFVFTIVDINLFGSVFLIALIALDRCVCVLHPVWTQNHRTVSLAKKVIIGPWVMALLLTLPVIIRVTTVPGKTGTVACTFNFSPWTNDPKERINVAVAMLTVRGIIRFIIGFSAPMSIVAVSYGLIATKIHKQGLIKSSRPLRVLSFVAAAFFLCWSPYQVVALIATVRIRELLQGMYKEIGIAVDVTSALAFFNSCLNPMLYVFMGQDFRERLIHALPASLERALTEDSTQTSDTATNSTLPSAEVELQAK
The assay is described as follows: human FPR1 ligand displacement potency – cell-based, flow cytometry, Ki from IC50, dose response (AID 724). (In general: A flow cytometer gives signals particle by particle.)

The compound `CC(=O)C1C(=O)C(=O)N(CCc2c(C)[nH]c3ccccc23)C1c1cccc(F)c1` (centres undefined) displayed a Ki of 11.2 µM.

Compound `COc1ccc(C(=O)C2C(=O)C(=O)N(CCc3c[nH]c4ccccc34)C2c2ccc(C(C)C)cc2)cc1` (centres undefined) yielded an inhibition constant Ki of more than 44.3 µM.

In the case of `COc1ccc(C2C(C(=O)c3cccs3)C(=O)C(=O)N2CCCn2ccnc2)cc1` (centres undefined) [1-(3-imidazol-1-ylpropyl)-2-(4-methoxyphenyl)-4-oxidanyl-3-thiophen-2-ylcarbonyl-2H-pyrrol-5-one], the Ki was 4.7 µM.

For the compound `COc1cc(C2C(C(C)=O)C(=O)C(=O)N2c2ccc(Br)cc2)ccc1O` (centres undefined) [1-(4-bromophenyl)-3-ethanoyl-2-(3-methoxy-4-oxidanyl-phenyl)-4-oxidanyl-2H-pyrrol-5-one], the inhibition constant (Ki) was more than 44.3 µM.

In turn, `COc1ccc(C2C(C(=O)c3cccs3)C(=O)C(=O)N2CCN2CCOCC2)c(OC)c1` (centres undefined) [2-(2,4-dimethoxyphenyl)-1-(2-morpholin-4-ylethyl)-4-oxidanyl-3-thiophen-2-ylcarbonyl-2H-pyrrol-5-one] showed a Ki of 2.9 µM.

Compound `COc1ccc(C2C(C(=O)c3ccco3)C(=O)C(=O)N2CCCN2CCOCC2)cc1OC` (centres undefined) [2-(3,4-dimethoxyphenyl)-3-(furan-2-carbonyl)-4-hydroxy-1-(3-morpholin-4-ylpropyl)-2H-pyrrol-5-one] registered a Ki of more than 44.3 µM.

Take `O=C1C(=O)N(CCc2ccccc2)C(c2ccc(Cl)cc2)C1C(=O)c1cccs1` (centres undefined) [2-(4-chlorophenyl)-4-hydroxy-1-(2-phenylethyl)-3-(thiophene-2-carbonyl)-2H-pyrrol-5-one]: the Ki came out at 6.9 µM.

Regarding `COc1cc(C2C(C(=O)c3cc4ccccc4o3)C(=O)C(=O)N2CCN(C)C)ccc1O` (centres undefined) [3-(1-benzofuran-2-carbonyl)-1-[2-(dimethylamino)ethyl]-4-hydroxy-2-(4-hydroxy-3-methoxyphenyl)-2H-pyrrol-5-one], the inhibition constant (Ki) is more than 44.3 µM.

With `COc1ccc(C2C(C(=O)c3cc4ccccc4o3)C(=O)C(=O)N2CCN(C)C)cc1OC` (centres undefined) [3-(1-benzofuran-2-carbonyl)-2-(3,4-dimethoxyphenyl)-1-[2-(dimethylamino)ethyl]-4-hydroxy-2H-pyrrol-5-one], the Ki is more than 44.3 µM.

Take `O=C1C(=O)N(CCCn2ccnc2)C(c2cccnc2)C1C(=O)c1cc2ccccc2o1` (centres undefined) [3-(1-benzofuran-2-carbonyl)-4-hydroxy-1-(3-imidazol-1-ylpropyl)-2-pyridin-3-yl-2H-pyrrol-5-one]: the Ki was more than 44.3 µM.

`O=C1C(=O)N(CCCN2CCOCC2)C(c2cccnc2)C1C(=O)c1cc2ccccc2o1` (centres undefined) [3-(1-benzofuran-2-carbonyl)-4-hydroxy-1-(3-morpholin-4-ylpropyl)-2-pyridin-3-yl-2H-pyrrol-5-one]: the Ki was more than 44.3 µM.

Regarding `O=C1C(=O)N(CCCn2ccnc2)C(c2cccnc2)C1C(=O)c1ccco1` (centres undefined) [3-(furan-2-carbonyl)-4-hydroxy-1-(3-imidazol-1-ylpropyl)-2-pyridin-3-yl-2H-pyrrol-5-one], the inhibition constant (Ki) is more than 44.3 µM.

The compound `COc1ccc(OC)c(C2C(C(=O)c3ccc(C)cc3)C(=O)C(=O)N2CCC(=O)O)c1` (centres undefined) [3-[(3E)-2-(2,5-dimethoxyphenyl)-3-[(4-methylphenyl)-oxidanyl-methylidene]-4,5-bis(oxidanylidene)pyrrolidin-1-yl]propanoic acid] displayed an inhibitory constant (Ki) of more than 44.3 µM.

Turning to `O=C(O)CCCN1C(=O)C(=O)C(C(=O)c2ccccc2)C1/C=C/c1ccccc1` (centres undefined) [4-[(4E)-2,3-bis(oxidanylidene)-4-[oxidanyl(phenyl)methylidene]-5-[(E)-2-phenylethenyl]pyrrolidin-1-yl]butanoic acid], the inhibition constant Ki is more than 44.3 µM.

In turn, `COc1ccc(C2C(C(=O)c3ccco3)C(=O)C(=O)N2CCN2CCOCC2)c(OC)c1` (centres undefined) [5-(2,4-dimethoxyphenyl)-4-(furan-2-carbonyl)-3-hydroxy-1-(2-morpholinoethyl)-1H-pyrrol-2(5H)-one] yielded a Ki of 6.4 µM.

`COc1ccc(OC)c(C2C(C(=O)c3ccccc3)C(=O)C(=O)N2c2ccc(C)c(Cl)c2)c1` (centres undefined) [(4E)-1-(3-chloranyl-4-methyl-phenyl)-5-(2,5-dimethoxyphenyl)-4-[oxidanyl(phenyl)methylidene]pyrrolidine-2,3-dione] registered an inhibition constant Ki of 16.8 µM.

`COc1ccc(C2C(C(=O)c3ccccc3)C(=O)C(=O)N2c2cccc(Cl)c2)c(OC)c1` (centres undefined) [(4E)-1-(3-chlorophenyl)-5-(2,4-dimethoxyphenyl)-4-[hydroxy(phenyl)methylene]pyrrolidine-2,3-quinone] had an inhibitory constant (Ki) of 31.1 µM.

The compound `COCCCN1C(=O)C(=O)C(C(=O)c2ccccc2)C1c1ccc(C(C)C)cc1` (centres undefined) [(4E)-1-(3-methoxypropyl)-4-[oxidanyl(phenyl)methylidene]-5-(4-propan-2-ylphenyl)pyrrolidine-2,3-dione] returned an inhibitory constant (Ki) of 20.3 µM.

In turn, `Cc1ccc(C(=O)C2C(=O)C(=O)N(c3nnc(C)s3)C2c2ccc(C(C)C)cc2)cc1` (centres undefined) [(4E)-4-[(4-methylphenyl)-oxidanyl-methylidene]-1-(5-methyl-1,3,4-thiadiazol-2-yl)-5-(4-propan-2-ylphenyl)pyrrolidine-2,3-dione] registered a Ki of more than 44.3 µM.

In turn, `CC(C)c1ccc(C2C(C(=O)c3ccccc3)C(=O)C(=O)N2Cc2cccnc2)cc1` (centres undefined) [(4E)-4-[hydroxy(phenyl)methylene]-5-p-cumenyl-1-(3-pyridylmethyl)pyrrolidine-2,3-quinone] gave a Ki of 33.2 µM.

Compound `COc1ccc(C2C(C(=O)c3ccccc3)C(=O)C(=O)N2CCCn2ccnc2)c(OC)c1` (centres undefined) [(4E)-5-(2,4-dimethoxyphenyl)-1-(3-imidazol-1-ylpropyl)-4-[oxidanyl(phenyl)methylidene]pyrrolidine-2,3-dione] returned a Ki of 3.4 µM.

`COc1ccc(C2C(C(=O)c3ccc(C)cc3)C(=O)C(=O)N2Cc2cccnc2)c(OC)c1` (centres undefined) [(4E)-5-(2,4-dimethoxyphenyl)-4-[(4-methylphenyl)-oxidanyl-methylidene]-1-(pyridin-3-ylmethyl)pyrrolidine-2,3-dione] yielded a Ki of 39.1 µM.

Take `COCCN1C(=O)C(=O)C(C(=O)c2ccccc2)C1c1cc(OC)ccc1OC` (centres undefined) [(4E)-5-(2,5-dimethoxyphenyl)-1-(2-methoxyethyl)-4-[oxidanyl(phenyl)methylidene]pyrrolidine-2,3-dione]: affinity was put at a Ki of 1.8 µM.

Take `COc1ccc(OC)c(C2C(C(=O)c3ccccc3)C(=O)C(=O)N2c2cccnc2)c1` (centres undefined) [(4E)-5-(2,5-dimethoxyphenyl)-4-[hydroxy(phenyl)methylene]-1-(3-pyridyl)pyrrolidine-2,3-quinone]: the Ki was determined as 6 µM.

`COCCCN1C(=O)C(=O)C(C(=O)c2ccccc2)C1c1ccc(O)c(OC)c1` (centres undefined) [(4E)-5-(3-methoxy-4-oxidanyl-phenyl)-1-(3-methoxypropyl)-4-[oxidanyl(phenyl)methylidene]pyrrolidine-2,3-dione] showed a Ki of 33 µM.

As to `O=C1C(=O)N(CN2CCOCC2)C(c2ccc(Br)cc2)C1C(=O)c1ccccc1` (centres undefined) [(4E)-5-(4-bromophenyl)-1-(morpholin-4-ylmethyl)-4-[oxidanyl(phenyl)methylidene]pyrrolidine-2,3-dione], the Ki was more than 44.3 µM.

In turn, `O=C1NC(c2ccc(Br)cc2)C(C(=O)c2ccc(Cl)cc2)C1=O` (centres undefined) [(4E)-5-(4-bromophenyl)-4-[(4-chlorophenyl)-hydroxy-methylene]pyrrolidine-2,3-quinone] gave an inhibitory constant (Ki) of more than 44.3 µM.

`Cc1ccc(C(=O)C2C(=O)C(=O)N(Cc3cccnc3)C2c2ccc(Br)cc2)cc1` (centres undefined) [(4E)-5-(4-bromophenyl)-4-[(4-methylphenyl)-oxidanyl-methylidene]-1-(pyridin-3-ylmethyl)pyrrolidine-2,3-dione] displayed an inhibitory constant (Ki) of more than 44.3 µM.

With `Cc1ccc(N2C(=O)C(=O)C(C(=O)c3ccccc3)C2c2cccc(F)c2)cc1Br` (centres undefined) [(4Z)-1-(3-bromanyl-4-methyl-phenyl)-5-(3-fluorophenyl)-4-[oxidanyl(phenyl)methylidene]pyrrolidine-2,3-dione], the inhibitory constant (Ki) is more than 44.3 µM.

Compound `CCCCCCN1C(=O)C(=O)C(C(=O)c2ccccc2)C1c1ccc(O)c(OC)c1` (centres undefined) [(4Z)-1-hexyl-5-(3-methoxy-4-oxidanyl-phenyl)-4-[oxidanyl(phenyl)methylidene]pyrrolidine-2,3-dione] returned a Ki of 4.7 µM.

In turn, `COc1ccc(C(=O)C2C(=O)C(=O)NC2c2ccc(OC)cc2OC)cc1` (centres undefined) [(4Z)-5-(2,4-dimethoxyphenyl)-4-[(4-methoxyphenyl)-oxidanyl-methylidene]pyrrolidine-2,3-dione] yielded an inhibition constant Ki of more than 44.3 µM.

Consider `CCCCCCOc1cccc(N2C(=O)C(=O)C(C(=O)c3ccccc3)C2c2cccc(F)c2)c1` (centres undefined) [(4Z)-5-(3-fluorophenyl)-1-(3-hexoxyphenyl)-4-[hydroxy(phenyl)methylene]pyrrolidine-2,3-quinone], for which the Ki was more than 44.3 µM.

`O=C1C(=O)N(c2ccc(F)cc2)C(c2ccc(Br)cc2)C1C(=O)c1ccccc1` (centres undefined) [(4Z)-5-(4-bromophenyl)-1-(4-fluorophenyl)-4-[hydroxy(phenyl)methylene]pyrrolidine-2,3-quinone] registered a Ki of more than 44.3 µM.

`N#Cc1c(N=C(CC(=O)c2ccccc2)C(=O)O)sc2c1CCC2` [(Z)-2-[(3-cyano-5,6-dihydro-4H-cyclopenta[b]thiophen-2-yl)amino]-4-keto-4-phenyl-but-2-enoic acid] gave a Ki of more than 44.3 µM.
